From ChEMBL document CHEMBL1157124, “Synthesis and anticancer evaluation of alpha-lipoic acid derivatives” (Bioorg Med Chem Lett, 2010)

Columns and labels:
Type in all cases: functional
[1] = test system: KB; experiment: Cytotoxicity against human KB cells assessed as growth inhibition at 100 ug/ml after 24 hrs by MTT assay; conditions: read-out: GI
[2] = Cytotoxicity against human HO8910 cells assessed as growth inhibition at 1 ug/ml after 24 hrs by MTT assay; conditions: HO-8910, 24 h, read-out: GI
[3] = test system: Bel-7402; experiment: Cytotoxicity against human Bel7402 cells assessed as growth inhibition at 100 ug/ml after 24 hrs by MTT assay; conditions: Bel-7402, 24 h, read-out: GI
[4] = test system: Bel-7402; experiment: Cytotoxicity against human Bel7402 cells assessed as growth inhibition at 1 ug/ml after 24 hrs by MTT assay; conditions: Bel-7402, 24 h, read-out: GI
[5] = test system: Bel-7402; experiment: Cytotoxicity against human Bel7402 cells assessed as growth inhibition at 0.1 ug/ml after 24 hrs by MTT assay; conditions: Bel-7402, 24 h, read-out: GI
[6] = test system: NCI-H460; experiment: Cytotoxicity against human NCI-H460 cells assessed as growth inhibition at 10 ug/ml after 24 hrs by MTT assay; conditions: NCI-H460, 24 h, read-out: GI
[7] = Cytotoxicity against human HO8910 cells assessed as growth inhibition at 10 ug/ml after 24 hrs by MTT assay; conditions: HO-8910, 24 h, read-out: GI
[8] = test system: NCI-H460; experiment: Cytotoxicity against human NCI-H460 cells assessed as growth inhibition at 1 ug/ml after 24 hrs by MTT assay; conditions: NCI-H460, 24 h, read-out: GI
[9] = test system: NCI-H460; experiment: Cytotoxicity against human NCI-H460 cells assessed as growth inhibition at 100 ug/ml after 24 hrs by MTT assay; conditions: NCI-H460, 24 h, read-out: GI
[10] = test system: KB; experiment: Cytotoxicity against human KB cells assessed as growth inhibition at 0.1 ug/ml after 24 hrs by MTT assay; conditions: read-out: GI
[11] = test system: NCI-H460; experiment: Cytotoxicity against human NCI-H460 cells assessed as growth inhibition at 0.1 ug/ml after 24 hrs by MTT assay; conditions: NCI-H460, 24 h, read-out: GI
[12] = Cytotoxicity against human HO8910 cells assessed as growth inhibition at 0.1 ug/ml after 24 hrs by MTT assay; conditions: HO-8910, 24 h, read-out: GI
[13] = Cytotoxicity against human HO8910 cells assessed as growth inhibition at 100 ug/ml after 24 hrs by MTT assay; conditions: HO-8910, 24 h, read-out: GI
[14] = test system: KB; experiment: Cytotoxicity against human KB cells assessed as growth inhibition at 10 ug/ml after 24 hrs by MTT assay; conditions: read-out: GI
[15] = test system: KB; experiment: Cytotoxicity against human KB cells assessed as growth inhibition at 1 ug/ml after 24 hrs by MTT assay; conditions: read-out: GI
[16] = test system: Bel-7402; experiment: Cytotoxicity against human Bel7402 cells assessed as growth inhibition at 10 ug/ml after 24 hrs by MTT assay; conditions: Bel-7402, 24 h, read-out: GI

| Structure (SMILES) | inhibition of growth at 100 µg/mL [1] | inhibition of growth at 1 µg/mL [2] | inhibition of growth at 100 µg/mL [3] | inhibition of growth at 1 µg/mL [4] | inhibition of growth at 0.1 µg/mL [5] | inhibition of growth at 10 µg/mL [6] | inhibition of growth at 10 µg/mL [7] | inhibition of growth at 1 µg/mL [8] | inhibition of growth at 100 µg/mL [9] | inhibition of growth at 0.1 µg/mL [10] | inhibition of growth at 0.1 µg/mL [11] | inhibition of growth at 0.1 µg/mL [12] | inhibition of growth at 100 µg/mL [13] | inhibition of growth at 10 µg/mL [14] | inhibition of growth at 1 µg/mL [15] | inhibition of growth at 10 µg/mL [16] |
| --- | --- | --- | --- | --- | --- | --- | --- | --- | --- | --- | --- | --- | --- | --- | --- | --- |
| O=C(CCCCC1CCSS1)Nc1ccccc1Cl (stereo not drawn) | 0.72% | 7.74% | 4.74% | 5.33% | 6.83% | 14.6% | 4.66% | 10.1% | 3.38% | 5.11% | 8% | 8.17% |  |  |  |  |
| O=C(CCCCC(S)CCS)Nc1ccc([N+](=O)[O-])cc1 (stereo not drawn) | 41.1% | 0.76% | 33.4% | 1.73% | 1.88% | 13.4% | 8.96% | 4.64% | 39.1% |  | 5.69% |  | 51.2% | 13.7% | 0.93% | 14.4% |
| CC(=O)SCCC(CCCCC(=O)Nc1ccc(Cl)cc1)SC(C)=O (stereo not drawn) | 72% | 0.35% | 45.5% | 3.07% | 9.96% | 14.8% | 1.47% | 15.4% | 47.3% | 11.4% | 9.89% | 1.81% | 58.8% | 18.1% | 14.8% | 5.78% |
| CC(=O)SCCC(CCCCC(=O)Nc1ccccc1)SC(C)=O (stereo not drawn) | 22.9% | 10.6% | 14.1% | 2.84% |  | 14.2% | 3.2% | 13.1% | 44.8% | 7.24% | 15.4% | 8.33% | 22.3% | 2.5% | 1.68% |  |
| COc1ccc(NC(=O)CCCCC(S)CCS)cc1 (stereo not drawn) | 22.2% | 1.79% | 22.5% | 3.96% | 5.35% | 1.43% | 4.14% |  | 23.5% |  | 5.69% |  | 12.6% | 8.93% | 2.49% | 10.4% |
| O=C(CCCCC(S)CCS)Nc1cccc(C(F)(F)F)c1 (stereo not drawn) | 30.5% | 13.7% | 25.3% | 1.66% | 2.85% | 11.4% | 8.86% | 8.26% | 32.1% | 8.41% | 11.9% | 10.8% | 34.8% | 1.97% |  | 1.21% |
| O=C(CCCCC(S)CCS)NO (stereo not drawn) | 58% |  | 47.5% | 9.12% | 5.96% | 17.7% | 26.2% | 1.17% | 43.7% | 7.62% | 5.7% |  | 49.3% | 41.5% | 10.6% | 28.2% |
| CC(=O)SCCC(CCCCC(=O)O)SC(C)=O (stereo not drawn) | 8.03% |  | 8.35% | 12.8% | 10.3% | 6.04% | 1.61% | 9.89% | 11% | 7.24% | 9.96% |  |  | 8.88% | 12.4% | 9.22% |
| O=C(CCCCC(S)CCS)Nc1ccc(F)cc1 (stereo not drawn) | 28.2% | 12.2% | 11.7% |  |  | 18.1% | 6.81% | 6.84% | 41.6% | 6.78% | 5.64% | 8.11% | 22.2% | 13.3% | 8.84% | 6.14% |
| O=C(CCCCC(CCSC(=O)c1ccccc1)SC(=O)c1ccccc1)Nc1ccccc1Cl (stereo not drawn) |  | 2.35% |  | 7.37% | 5.72% | 12.1% | 1.33% | 14.4% |  | 3.62% | 15.1% |  |  | 2.53% | 3.05% | 6.63% |
| O=C(CCCCC(S)CCS)Nc1ccccc1 (stereo not drawn) | 15.8% | 6.38% | 7.67% | 1.32% | 0.85% | 8.37% | 5.49% | 4.3% | 25.4% | 9.49% | 5.5% | 7.37% | 13.7% | 8.62% | 11.6% | 3.72% |
| COc1ccc(NC(=O)CCCCC2CCSS2)cc1 (stereo not drawn) | 48.3% | 3.54% | 38.7% | 7.93% | 5.48% | 9.82% | 6.34% | 0.51% | 45.7% | 4% | 3.82% | 1.64% | 43.8% | 2.94% | 5.03% | 6.32% |
